# Measured values from patent US11385220B2, “Methods for measuring oxidative stress in human body fluids” (CHUNGDO PHARM. CO., LTD, priority 2017, dated 2022).
# How the values were obtained:
# [1] = Solubility of TBA in solvent with or without DMSO; type: physicochemical
# Experimental: In the prior art (Korean Patent Laid-open No. 10-2013-0088623), the amount of TBA added was only 2 to 3%.
# In the conventional published Patent No. 10-2013-0088623, the addition of 2 to 3 parts by weight of 1,3-diethyl-2-thiobarbituric acid (TBA) was determined to be an appropriate concentration with respect to 100 parts by weight of distilled water due to the solubility problem of TBA thereof. However, in the present invention, the solubility problem of TBA is solved by adding DMSO. By adding DMSO, 3.5 parts or more by weight of TBA can be dissolved in 100 parts by weight of distilled water or ethanol.
# In the present example, DMSO (dimethyl sulfoxide) was added to the TBA solution. […] DMSO is an important solvent that dissolves both polar and nonpolar compounds, and can be used in combination with various organic solvents as well as water.
# It was difficult to dissolve TBA in an amount of 3.5 parts by weight or more based on 100 parts by weight of the solvent in accordance with the method of the conventional art disclosed in published Patent No. 10-2013-0088623, and although dissolved, TBA was precipitated during the process.
# [2] = Crystallization of TBA-containing solution depending on amount of DMSO added (test paper, room temperature); type: physicochemical; settings: test paper immersed in TBA solution, standing at room temperature, increasing amount of DMSO (FIG. 1)
# Description: FIG. 1 is an image showing crystallization of a solution containing TBA as a color indicator depending on the amount of DMSO added.
structure (smiles),measurement,setting,value
"CCN1C(=O)CC(=O)N(CC)C1=S [TBA, 1,3-diethyl-2-thiobarbituric acid]",TBA dissolved in distilled water,"[1]; distilled water, no DMSO",not dissolved in distilled water
same,TBA dissolved in ethanol,"[1]; ethanol, no DMSO",about 3.5%
same,amount of TBA that can be dissolved by the conventional method,"[1]; per 100 parts by weight of solvent, no DMSO (method of KR 10-2013-0088623), precipitated during the process",< 3.5 parts by weight
same,TBA recrystallization,[2],TBA recrystallization decreased
